The record followed here is US8658697B2 (priority 2004, dated 2014).

The structures appear in SMILES notation. A value given as a limit tells only on which side of the number the result lay.

The subject of the assay is Tacaribe virus (TRVL 11573). Description: microbe, parasite or virus in culture. It is filed as cell-based. To be noted: Mammarenavirus tacaribeense, Vero, read-out: Tacaribe EC50.
On to `CC(NC(=O)NNS(=O)(=O)c1ccc(-c2ccccc2)cc1)(C(F)(F)F)C(F)(F)F` [Example 1], for which the EC50 is under 500 nM. Take `CC(C)(C)c1ccc(S(=O)(=O)NNC(=O)NC(C)(C(F)(F)F)C(F)(F)F)cc1` [Example 2]: the EC50 was under 500 nM.

With `CN1CCOc2cc(S(=O)(=O)NNC(=O)NC(C)(C(F)(F)F)C(F)(F)F)ccc21` [Example 3, N-2-(1,1,1,3,3,3-Hexafluoro-2-methylpropyl)-2-[7-(4-methyl-3,4-dihydro-2H-benzo[1,4]oxazinyl)sulfonyl] hydrazine-1-carboxamide], the EC50 was under 500 nM.

As to `CN(C)c1cccc2c(S(=O)(=O)NNC(=O)NC(C)(C(F)(F)F)C(F)(F)F)cccc12` [Example 4, N-2-(1,1,1,3,3,3-Hexafluoro-2-methylpropyl)-2-[5-(1-dimethylamino-naphthyl)sulfonyl]hydrazine-1-carboxamide], the EC50 is under 500 nM. To `Cc1cc(C)c(S(=O)(=O)NNC(=O)NC(C)(C(F)(F)F)C(F)(F)F)c(C)c1` [Example 5, N-2-(1,1,1,3,3,3-Hexafluoro-2-methylpropyl)-2-[(2,4,6-trimethylphenyl)sulfonyl)hydrazine-1-carboxamide] belongs under 500 nM; to `COc1ccc(Cl)cc1S(=O)(=O)NNC(=O)NC(C)(C(F)(F)F)C(F)(F)F` [Example 6, N-2-(1,1,1,3,3,3-Hexafluoro-2-methylpropyl)-2-[(3-chloro-6-methoxyphenyl)sulfonyl]hydrazine-1-carboxamide], under 500 nM; to `COc1ccc(OC)c(S(=O)(=O)NNC(=O)NC(C)(C(F)(F)F)C(F)(F)F)c1` [Example 7, N-2-(1,1,1,3,3,3-Hexafluoro-2 methylpropyl)-2-[(3,6-dimethoxyphenyl)sulfonyl] hydrazine-1-carboxamide], under 500 nM. To `CC(NC(=O)NNS(=O)(=O)c1ccc(-c2csnn2)cc1)(C(F)(F)F)C(F)(F)F` [Example 8, N-2-(1,1,1,3,3,3-Hexafluoro-2-methylpropyl)-2-[(4-(4-[1,2,3]thiadiazolyl)phenyl)sulfonyl] hydrazine-1-carboxamide] belongs under 500 nM; to `CC(NC(=O)NNS(=O)(=O)c1cccc(Br)c1)(C(F)(F)F)C(F)(F)F` [Example 9, N-2-(1,1,1,3,3,3-Hexafluoro-2-methylpropyl)-2-[(3-bromophenyl)sulfonyl)hydrazine-1-carboxamide], under 500 nM; to `CC(NC(=O)NNS(=O)(=O)c1ccc(Br)cc1)(C(F)(F)F)C(F)(F)F` [Example 10, N-2-(1,1,1,3,3,3-Hexafluoro-2-methylpropyl)-2-[(4-bromophenyl)sulfonyl]hydrazine-1-carboxamide], under 500 nM.

For the compound `Cc1ccc(S(=O)(=O)NNC(=O)NC(C)(C(F)(F)F)C(F)(F)F)cc1` [Example 11, N-2-(1,1,1,3,3,3-Hexafluoro-2-methylpropyl)-2-[(4-methylphenyl)sulfonyl]hydrazine-1-carboxamide], the EC50 is under 500 nM. Take `COc1ccc(S(=O)(=O)NNC(=O)NC(C)(C(F)(F)F)C(F)(F)F)cc1` [Example 12, N-2-(1,1,1,3,3,3-Hexafluoro-2-methylpropyl)-2-[(4-methylphenyl)sulfonyl]hydrazine-1-carboxamide]: the EC50 was under 500 nM. Take `CC(NC(=O)NNS(=O)(=O)c1ccc(OC(F)F)cc1)(C(F)(F)F)C(F)(F)F` [Example 13, N-2-(1,1,1,3,3,3-Hexafluoro-2-methylpropyl)-2-[(4-difluoromethoxyphenyl)sulfonyl] hydrazine-1-carboxamide]: the 50% effective concentration (EC50) is under 500 nM. The value for `CC(NC(=O)NNS(=O)(=O)c1ccc(Cl)c(F)c1)(C(F)(F)F)C(F)(F)F` [Example 14, N-2-(1,1,1,3,3,3-Hexafluoro-2-methylpropyl)-2-[(3-fluoro-4-chloro-phenyl)sulfonyl]hydrazine-1-carboxamide] was 500 to 1000 nM.
